Reference: US12545658B2, “Pyridine derivatives as calcium-activated chloride channel modulators” (TMEM16A LIMITED, priority 2019, dated 2026)

Columns and labels:
[1] = Microsomal stability (human microsomes); assay type: in vitro ADME; details: pH 7.4, 1 μM compound, 0.5 mg/mL protein, 1 mM NADPH, 37° C., read-out: Human Microsome Clint
Description: Microsomes (human) were obtained from Bioreclamation.
All Test and reference control compounds (raloxifene, diclofenac, terfenadine, propranolol, dextromethorphan and metoprolol) were dissolved to create a 100 μM stock (final concentrations; 91.5% Acetonitrile: 8.5% DMSO). Final test compound concentration in incubation was 1 μM (<0.1% DMSO).
Solution 1: 17.4 g potassium phosphate dibasic anhydrous (K2HPO4, 0.1 M) dissolved in 1 L deionised water. Solution 2: 13.6 g potassium phosphate monobasic anhydrous (KH2PO4, 0.1 M) dissolved in 1 L deionised water. pH7.4 with 2 mM magnesium chloride. NADPH (10 mM) is prepared in deionised water. Microsomes (all species) were removed from the −80° C. thawed at 37° C. Microsomes were diluted in assay buffer to achieve a final protein concentration of 0.5 mg/mL and 1 mM NADPH.
The following procedure was completed on a Perkin Elmer Janus robotic platform in 96 well format: The microsomal incubation plate was transferred to a heater shaker at 300 rpm and solution heated to 37° C. for 10 min pre-warm. A no co-factor control at 0 and 45 min and one replicates of each test compound was included in every assay. Microsomes were incubated at 37° C., on a shaker set at 300 rpm throughout the assay. […]

[2] = target: T1, human TMEM16A (TMEM16Aabc variant) (Homo sapiens, UniProt Q5XXA6); assay: Automated whole-cell patch clamp (QPatch) TMEM16A potentiator assay in FRT cells stably expressing human TMEM16A; assay type: cell-based; details: for QPatch TMEM16A % Potentiation @ 370 nM: 370 nM test compound; for QPatch TMEM16A % Potentiation @ 370 nM / QPatch TMEM16A % Potentation @ 3.3 μM: percentage increase of baseline TMEM16A current; for QPatch TMEM16A % Potentation @ 3.3 μM: 3.3 μM test compound; for EC50: FRT-TMEM16A cells, whole-cell patch clamp, peak current at +70 mV, intracellular calcium at EC20; for EC50 compared with Compound B: indole compounds versus comparator Compound B; for maximum potentiation of TMEM16A compared with Compound B: versus comparator Compound B
T1 construct: human TMEM16A (TMEM16Aabc variant)
T1 sequence (Q5XXA6 1-986): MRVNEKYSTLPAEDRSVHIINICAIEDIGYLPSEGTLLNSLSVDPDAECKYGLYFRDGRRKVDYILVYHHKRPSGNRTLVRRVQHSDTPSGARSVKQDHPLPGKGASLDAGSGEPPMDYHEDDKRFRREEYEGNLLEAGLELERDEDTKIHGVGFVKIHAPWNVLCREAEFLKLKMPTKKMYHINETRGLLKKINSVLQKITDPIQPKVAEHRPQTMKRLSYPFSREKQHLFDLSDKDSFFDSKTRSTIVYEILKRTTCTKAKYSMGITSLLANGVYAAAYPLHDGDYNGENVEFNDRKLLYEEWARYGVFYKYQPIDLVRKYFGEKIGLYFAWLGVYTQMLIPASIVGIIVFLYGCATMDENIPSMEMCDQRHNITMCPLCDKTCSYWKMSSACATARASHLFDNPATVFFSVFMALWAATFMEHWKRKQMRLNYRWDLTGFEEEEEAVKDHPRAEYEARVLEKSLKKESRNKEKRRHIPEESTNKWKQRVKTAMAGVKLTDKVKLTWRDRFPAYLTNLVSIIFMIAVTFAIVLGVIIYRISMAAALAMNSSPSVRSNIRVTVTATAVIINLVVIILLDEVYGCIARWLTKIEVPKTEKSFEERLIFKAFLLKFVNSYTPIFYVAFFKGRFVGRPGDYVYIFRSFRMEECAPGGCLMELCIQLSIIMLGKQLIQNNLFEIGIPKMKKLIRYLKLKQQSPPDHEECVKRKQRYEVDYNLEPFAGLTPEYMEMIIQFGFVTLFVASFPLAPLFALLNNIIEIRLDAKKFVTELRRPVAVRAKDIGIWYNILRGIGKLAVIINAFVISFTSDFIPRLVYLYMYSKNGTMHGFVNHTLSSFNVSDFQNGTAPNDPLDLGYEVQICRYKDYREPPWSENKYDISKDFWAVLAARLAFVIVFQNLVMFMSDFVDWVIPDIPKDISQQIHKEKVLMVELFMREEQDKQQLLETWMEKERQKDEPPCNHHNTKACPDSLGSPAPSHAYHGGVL
Description: Fisher rat thyroid (FRT) cells stably expressing human TMEM16A (TMEM16Aabc variant; Dr Luis Galietta, Insituto Giannina, Italy) were cultured in T-75 flasks in Hams F-12 media with Coon's modification (Sigma) supplemented with 10% (v/v) foetal bovine serum, penicillin-streptomycin (10,000 U/mL/10000 μg/mL), G-418 (750 μg/mL), L-glutamine (2 mM) and sodium bicarbonate solution (7.5% v/v). At ˜90% confluence cells were harvested for experiments by detachment with a 2:1 (v/v) mixture of Detachin (BMS Biotechnology) and 0.25% (w/v) trypsin-EDTA.
FRT-TMEM16A cells were whole-cell patch clamped using an automated planar patch clamp system (Qpatch, Sophion). Briefly, once high resistance (GOhm) seals were established between the cells and the planar recording array the patch was ruptured using suction pulses to establish the whole-cell recording configuration of the patch clamp technique. The assay employed the following solutions (all reagents Sigma): Intracellular solution (mM): N-methyl-D-glucamine 130, CaCl2 18.2, MgCl2 1, HEPES 10, EGTA 10, BAPTA 20, Mg-ATP 2, pH 7.25, 325 mOsm with sucrose.
Extracellular solution (mM): N-methyl-D-glucamine 130, CaCl2 2, MgCl2 1, HEPES 10, pH 7.3, 320 mOsm with sucrose.
The intracellular solution buffers intracellular calcium at levels required to give ˜20% activation of the maximal TMEM16A mediated current (EC20 for calcium ions). Cells were voltage clamped at a holding potential of −70 mV and a combined voltage step (to +70 mV)/ramp (−90 my to +90 mV) was applied at 0.05 Hz. After a period of current stabilisation test compounds, solubilised in 100% (v/v) DMSO and subsequently diluted into extracellular solution, were applied to generate a cumulative concentration response curve. Each concentration of test compound was incubated for 5 minutes before addition of the next concentration. After the final concentration was tested a supramaximal concentration of either a known active positive modulator or the TMEM16A inhibitor, CaCCinhA01 (Del La Fuente et al, 2008) was added to define the upper and lower limits of the assay.
Compound activity was quantified by measuring the increase in current upon compound addition and expressing this as a percentage increase of baseline TMEM16A current level.
In FIG. 1, IBL equals baseline current, I[#1] equals the peak current during test compound concentration 1 incubation period and so on.
Peak TMEM16A current at +70 mV was plotted as a function of time over the assay period. Baseline current (IBL) was measured after a period of stabilisation. The increase in current for each compound addition was determined by taking the peak current during the incubation period and subtracting the current from the previous recording period and then expressing this as a percentage of the baseline current (% potentiation). For test compound concentration 1 in FIG. 1 this is: (I[#1]−IBL/IBL)×100 For each additional concentration tested the increase in current was determined by subtracting the current from the previous incubation period and normalising the baseline value—for test concentration 2 in FIG. 1 this is: (I[#2]−I[#1])/IBL)×100 The values for each test concentration were plotted as a cumulative function of concentration eg. for test concentration two this would be the sum of the peak changes measured during concentration one plus concentration two.

| SMILES | microsomal CLint at 1 μM [1] [µL/min/mg] | QPatch TMEM16A % Potentiation @ 370 nM [2] [%] | QPatch TMEM16A % Potentation @ 3.3 μM [2] [%] | EC50 [2] [nM] | EC50 compared with Compound B [2] | maximum potentiation of TMEM16A compared with Compound B [2] |
| --- | --- | --- | --- | --- | --- | --- |
| C#CC(C)(C)NC(=O)c1cc(NC(=O)Cc2cccc3cc[nH]c23)ccn1 [Compound B, reference compound] | 46 | 42 | 64 |  |  |  |
| CC(C)(C)NC(=O)c1cc(NC(=O)Cc2cc3[nH]ncc3cc2Cl)ccn1 [Example 7.1, N-tert-Butyl-4-[[2-(5-chloro-1H-indazol-6-yl)acetyl]amino]pyridine-2-carboxamide] |  | 47 | 82 | 270 |  |  |
| CC(C)(C)NC(=O)c1cc(NC(=O)Cc2cc(Cl)c3cn[nH]c3c2)ccn1 [Example 7.2, N-tert-Butyl-4-[[2-(4-chloro-1H-indazol-6-yl)acetyl]amino]pyridine-2-carboxamide] |  | 102 | 142 | 140 |  |  |
| CC(C)(C)NC(=O)c1cc(NC(=O)Cc2ccc3c(C(F)(F)F)n[nH]c3c2)ccn1 [Example 8, N-tert-Butyl-4-[[2-[3-(trifluoromethyl)-1H-indazol-6-yl]acetyl]amino]pyridine-2-carboxamide] |  | 65 | 98 | 210 |  |  |
| O=C(Cc1ccc2c(C(F)(F)F)n[nH]c2c1)Nc1ccnc(C(=O)NC2(C(F)(F)F)CC2)c1 [Example 8.1, N-[1-(Trifluoromethyl)cyclopropyl]-4-[[2-[3-(trifluoromethyl)-1H-indazol-6-yl]acetyl]amino]pyridine-2-carboxamide] |  | 97 | 267 | 600 |  |  |
| CC(C)c1n[nH]c2cc(CC(=O)Nc3ccnc(C(=O)NC(C)(C)C)c3)ccc12 [Example 9, N-tert-Butyl-4-[[2-(3-isopropyl-1H-indazol-6-yl)acetyl]amino]pyridine-2-carboxamide] |  | 113 | 200 | 280 |  |  |
| O=C(Cc1ccc2cn[nH]c2c1)Nc1ccnc(C(=O)NC2(C(F)(F)F)COC2)c1 [Example 11.3, 4-[[2-(1H-Indazol-6-yl)acetyl]amino]-N-[3-(trifluoromethyl)oxetan-3-yl]pyridine-2-carboxamide] |  | 117 | 180 | 220 |  |  |
| O=C(Cc1ccc2cn[nH]c2c1)Nc1ccnc(C(=O)NC2(C(F)F)CC2)c1 [Example 11.4, N-[1-(Difluoromethyl)cyclopropyl]-4-[[2-(1H-indazol-6-yl)acetyl]amino] pyridine-2-carboxamide] |  | 85 | 132 | 210 |  |  |
| O=C(Cc1ccc2cn[nH]c2c1)Nc1ccnc(C(=O)NC23CC(F)(C2)C3)c1 [Example 11.5, N-(3-Fluoro-1-bicyclo[1.1.1]pentanyl)-4-[[2-(1H-indazol-6-yl)acetyl]amino]pyridine-2-carboxamide] |  | 41 | 61 | 140 |  |  |
| CC(O)(c1n[nH]c2cc(CC(=O)Nc3ccnc(C(=O)NC4(C(F)(F)F)CC4)c3)ccc12)C(F)(F)F (centres unmarked) [Example 12, 4-[[2-[3-(2,2,2-Trifluoro-1-hydroxy-1-methyl-ethyl)-1H-indazol-6-yl]acetyl]amino]-N-[1-(trifluoromethyl)cyclopropyl]pyridine-2-carboxamide] |  | 204 | 338 | 240 |  |  |
| CC(C)(NC(=O)c1cc(NC(=O)Cc2ccc3cc[nH]c3c2)ccn1)C(F)(F)F [Example 13, 4-[[2-(1H-Indol-6-yl)acetyl]amino]-N-(2,2,2-trifluoro-1,1-dimethyl-ethyl) pyridine-2-carboxamide] |  | 47 | 93 | 410 |  |  |
| CC1(NC(=O)c2cc(NC(=O)Cc3ccc4cc[nH]c4c3)ccn2)CC(F)(F)C1 [Example 13.1, N-(3,3-Difluoro-1-methyl-cyclobutyl)-4-[[2-(1H-indol-6-yl)acetyl]amino] pyridine-2-carboxamide] | 199 | 113 | 115 | 50 | lower EC50 values than Compound B | improved maximum potentiation of TMEM16A |
| N#CC1(NC(=O)c2cc(NC(=O)Cc3ccc4cc[nH]c4c3)ccn2)CCOCC1 [Example 13.2, N-(4-Cyanotetrahydropyran-4-yl)-4-[[2-(1H-indol-6-yl)acetyl]amino] pyridine-2-carboxamide] |  | 98 | 134 | 130 | lower EC50 values than Compound B | improved maximum potentiation of TMEM16A |
